These results are taken from ChEMBL document CHEMBL1201862, “PubChem BioAssay data set” (2004).

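Where inhibition never reached the appropriate level, the endpoint shown equals the highest concentration tested. Otherwise, values were interpolated linearly from a five-concentration, 48-hour dose response in 96-well plates. Abbreviation: GI50, concentration required for 50% inhibition of growth.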 Active and inactive are the calls of the source. No stated cut-off is given here; in the data, active = GI50 up to about 1.1 µM and inactive = higher. A value given as a limit tells only on which side of the number the result lay.

Common to all, as to assay: NCI tumour cell line growth inhibition, 48 h
For test [1], the system named is UACC-62.
The test system of test [2] is OVCAR-4.
The test system of test [3] is RXF 393.
The subject of test [4] is UACC-257.
Test [5] concerns M14.
The subject of test [6] is SK-MEL-2.
In test [7] the test system is MDA-MB-435.
The test system of test [8] is Malme-3M.
The test system of test [9] is NCI-H23.
Test [10] deals with EKVX.
In test [11] the test system is KM12.
Test [12] concerns MDA-MB-231.
The subject of test [13] is HL-60.
For test [14], the system named is K562.
For test [15], the system named is ACHN.
The subject of test [16] is 786-0.
Test [17] has as its system COLO 205.
Test [18] relates to A498.
Test [19] has as its system HOP-62.
The subject of test [20] is MDA-N.

On to `O=C1c2cccnc2C(=O)c2c1nc1ccccc1c2-c1cncc(-c2c3c(nc4ccccc24)C(=O)c2cccnc2C3=O)c1`, for which the GI50 in [1] is 0.474 µM (active); in test [2] it was 0.236 µM (active); in test [3] it was 0.316 µM (active); in test [4], 0.318 µM (active); in test [5], 0.115 µM (active); in test [6], 0.693 µM (active). Moreover, the GI50 is 0.256 µM (active) in test [7]; 0.28 µM (active) in test [8]; 0.343 µM (active) in [9]; 0.264 µM (active) in test [10]; 0.212 µM (active) in test [11]; 0.237 µM (active) in [12]. Moreover, the GI50 in [13] was 0.0687 µM (active); in [14], 0.213 µM (active); in test [15] it was 0.124 µM (active); in [16], 0.0995 µM (active); in test [17], 0.525 µM (active); in test [18], 2.56 µM (inactive). Moreover, the GI50 is 0.281 µM (active) in [19] and 0.399 µM (active) in test [20].
Take `C1=N\c2ccc(cc2)/N=C\c2ccccc2OCc2cccc(n2)COc2ccccc2/1`: the GI50 was > 100 µM (inactive) in test [1]; > 100 µM (inactive) in test [2]; 5.19 µM (inactive) in [3]; > 100 µM (inactive) in test [4]; > 100 µM (inactive) in [5]; > 100 µM (inactive) in [6]. For the same compound, the GI50 in [7] was > 100 µM (inactive); in [8] it was > 100 µM (inactive); in test [9] it was > 100 µM (inactive); in test [10], > 100 µM (inactive); in test [11] it was > 100 µM (inactive); in test [12] it was 78.3 µM (inactive). Besides, the GI50 is > 100 µM (inactive) in test [13]; > 100 µM (inactive) in [14]; 61.4 µM (inactive) in [15]; 45.5 µM (inactive) in test [16]; > 100 µM (inactive) in test [17]; > 100 µM (inactive) in [18]. The GI50 in test [19] was 30.1 µM (inactive); in test [20], > 100 µM (inactive).
For `C/C(=N\Nc1nc2cc(Cl)ccc2s1)c1ccccn1`, the GI50 in [1] was 0.673 µM (active); in [2], 0.39 µM (active); in test [3], 1.99 µM (inactive); in [4], 0.519 µM (active); in [5], 0.443 µM (active); in [6], 0.442 µM (active). In addition, the GI50 was 1.83 µM (inactive) in test [7]; 0.834 µM (active) in test [8]; 0.403 µM (active) in test [9]; 0.129 µM (active) in [10]; 0.63 µM (active) in test [11]; 0.405 µM (active) in [12]. Further, the GI50 in [13] is 0.14 µM (active); in test [14], 0.136 µM (active); in test [15], 0.191 µM (active); in test [16], 0.617 µM (active); in [17], 0.09 µM (active); in test [18] it was 1.61 µM (inactive). The GI50 in test [19] was 0.904 µM (active); in test [20], 1.73 µM (inactive).
Take `COC(=O)/C=C(\S/C(=C(/c1ccc(OC)cc1)n1cc(C(=O)OC)c(C(=O)OC)n1)c1ccc(OC)cc1)C(=O)OC`: the GI50 in [1] was 34.9 µM (inactive); in test [2], 19.4 µM (inactive); in [3] it was 12.6 µM (inactive); in test [4], 8.49 µM (inactive); in test [5] it was 21.6 µM (inactive); in [6], 32.6 µM (inactive). Further, the GI50 in [7] is 16.7 µM (inactive); in test [8], 13.7 µM (inactive); in test [9], 37.2 µM (inactive); in test [10], 21.6 µM (inactive); in test [11], 76.2 µM (inactive); in test [12], > 100 µM (inactive). Also, the GI50 in test [13] is 2.7 µM (inactive); in test [14] it was 6.5 µM (inactive); in test [15], 5.13 µM (inactive); in test [16], 5.36 µM (inactive); in test [17], 3.01 µM (inactive); in test [18], > 100 µM (inactive). The GI50 in test [19] was 44.9 µM (inactive); in test [20], 19.6 µM (inactive).
For the compound `O=C1C=CC(=O)C(CNc2ccc(C(=O)OC34CC5CC(CC(C5)C3)C4)cc2)=C1`, the GI50 in [1] is 5.14 µM (inactive); in test [2], 3.01 µM (inactive); in test [3] it was 1.71 µM (inactive); in test [4], 6.04 µM (inactive); in [5] it was 12.6 µM (inactive); in test [6], 15.1 µM (inactive). Besides, the GI50 in [7] was 5.93 µM (inactive); in test [8], 4.58 µM (inactive); in test [9] it was 6.67 µM (inactive); in [10], 6.53 µM (inactive); in test [11], 5.94 µM (inactive); in [12] it was 14 µM (inactive). In addition, the GI50 is 1.53 µM (inactive) in [13]; 4.52 µM (inactive) in [14]; 6.28 µM (inactive) in test [15]; 10.3 µM (inactive) in test [16]; 2.04 µM (inactive) in test [17]; 11.7 µM (inactive) in test [18]. Also, the GI50 in test [19] was 11.4 µM (inactive); in test [20], 4.73 µM (inactive).
For `CC(C)(C)CC(C)(C)c1ccc(O)c(C[N+](C)(C)[O-])c1`, the GI50 is > 100 µM (inactive) in test [1]; 63.5 µM (inactive) in test [2]; > 100 µM (inactive) in [3]; > 100 µM (inactive) in test [4]; > 100 µM (inactive) in [5]; > 100 µM (inactive) in test [6]. For the same compound, the GI50 in test [7] was 79.4 µM (inactive); in test [8], > 100 µM (inactive); in test [9], > 100 µM (inactive); in test [10] it was > 100 µM (inactive); in test [11] it was > 100 µM (inactive); in test [12], > 100 µM (inactive). The GI50 is 33.3 µM (inactive) in test [13]; 74.8 µM (inactive) in test [14]; > 100 µM (inactive) in test [15]; > 100 µM (inactive) in test [16]; 60.3 µM (inactive) in test [17]; > 100 µM (inactive) in test [18]. For the same compound, the GI50 in test [19] and in test [20] was > 100 µM (inactive) throughout.
Turning to `C=C(C)[C@H]1CC(=O)[C@@]2(C)C[C@H]3O[C@]3(C)CC/C=C(\C)CC[C@H]12`, the GI50 is 28.1 µM (inactive) in test [1]; 42.1 µM (inactive) in [2]; 33.8 µM (inactive) in test [3]; 19.4 µM (inactive) in test [4]; > 10 µM (inactive) in [5]; 45.1 µM (inactive) in [6]. For the same compound, the GI50 in test [7] was 43.8 µM (inactive); in test [8], 44.6 µM (inactive); in [9], 34.4 µM (inactive); in test [10], 40.5 µM (inactive); in test [11], 16 µM (inactive); in [12] it was 84.1 µM (inactive). Moreover, the GI50 is 21.6 µM (inactive) in test [13]; 18 µM (inactive) in test [14]; 42.9 µM (inactive) in [15]; 62.8 µM (inactive) in test [16]; 20.8 µM (inactive) in test [17]; 36.1 µM (inactive) in test [18]. The GI50 in test [19] is 74.1 µM (inactive); in test [20], 49 µM (inactive).
With `ClC1=NSSC1(Cl)Cl`, the GI50 was 45.7 µM (inactive) in [1]; 44.2 µM (inactive) in test [2]; 46.1 µM (inactive) in test [3]; 51.8 µM (inactive) in test [4]; 19.8 µM (inactive) in test [5]; > 100 µM (inactive) in test [6]. Further, the GI50 in test [7] is 41.8 µM (inactive); in [8], 28.6 µM (inactive); in [9] it was > 100 µM (inactive); in test [10], 58.3 µM (inactive); in test [11], 71.1 µM (inactive); in test [12] it was 30.8 µM (inactive). In addition, the GI50 in [13] was 2.4 µM (inactive); in test [14], 5.9 µM (inactive); in test [15], 20.4 µM (inactive); in test [16], 23.6 µM (inactive); in test [17], 14.7 µM (inactive); in test [18] it was > 100 µM (inactive). Also, the GI50 is > 100 µM (inactive) in [19] and 27.7 µM (inactive) in [20].
For `CC(C)c1nc2c(Cl)c3ncccc3cc2[nH]c1=O`, the GI50 in test [1] is > 100 µM (inactive); in [2], 67.8 µM (inactive); in test [3] it was > 100 µM (inactive); in test [4], > 100 µM (inactive); in [5], > 100 µM (inactive); in [6] it was > 100 µM (inactive). The GI50 was > 100 µM (inactive) in test [7]; > 100 µM (inactive) in test [8]; 80.2 µM (inactive) in test [9]; 9.71 µM (inactive) in test [10]; 80.4 µM (inactive) in test [11]; 73.6 µM (inactive) in test [12]. In addition, the GI50 in test [13] was 50.4 µM (inactive); in test [14] it was > 100 µM (inactive); in test [15] it was 44 µM (inactive); in test [16], > 100 µM (inactive); in [17] it was > 100 µM (inactive); in [18], > 100 µM (inactive). For the same compound, the GI50 is 32.7 µM (inactive) in test [19] and > 100 µM (inactive) in test [20].
Consider `O=C(/C=C/c1cccc2ccccc12)c1ccccc1`, for which the GI50 was 11.7 µM (inactive) in test [1]; 12.9 µM (inactive) in test [2]; 10.9 µM (inactive) in test [3]; 15 µM (inactive) in [4]; 14.6 µM (inactive) in [5]; 14 µM (inactive) in test [6]. The GI50 in test [7] is 8.81 µM (inactive); in test [8] it was 12.9 µM (inactive); in test [9], 13.7 µM (inactive); in test [10] it was 13.4 µM (inactive); in test [11], 4.71 µM (inactive); in test [12] it was 8.93 µM (inactive). In addition, the GI50 in [13] was 2.88 µM (inactive); in [14], 2.74 µM (inactive); in [15] it was 13.9 µM (inactive); in test [16] it was 8.83 µM (inactive); in test [17], 20.7 µM (inactive); in test [18], 17.4 µM (inactive). The GI50 in test [19] is 19.8 µM (inactive); in [20], 5.71 µM (inactive).
